Experiments:
rat brain homogenates = conditions: cited from earlier work
Epiderm human skin model = conditions: pH 7.4
Protocol: The irritant potential of the extract was evaluated in vitro, by the colorimetric method (MTT), using the reconstructed epidermis model "EpiDerm® (MatTek Corporation).
In order to determine the safety of birch extract in cosmetics, a method was used to determine the irritant potential using the Epiderm human skin model, which contains a multilayered differentiated epidermis. In this method, the exposure time at which a 50% reduction in the number of viable cells (ET50) occurs is assessed. This number is assessed by measuring the reduction of MTT - 3-(4,5-dimethylthiaz-2-yl)-2-5-diphenyltetrazolium bromide). Formazan, which is blue-violet in colour, is formed as a result of mitochondrial metabolism. Formazan formation allows assessment of the number of cells that have been damaged. A chemical is classified as an irritant if the cell survival rate relative to a negative sample (containing neutral solvent) is below 50%.
The test consisted of applying an appropriate amount of a solution of the test compound to the surface of the epidermis model. Birch extract solutions of 0.25 per cent and 0.5 per cent by weight were prepared, corresponding to the content of this active ingredient in cosmetic preparations. […]

elastase = conditions: relative to retinol; cited from earlier work
collagenase = conditions: cited from earlier work
E-cadherin = conditions: skin substitute EpiDermFT; cited from earlier work
Aquaporin 3 = conditions: skin substitute EpiDermFT; cited from earlier work

SMILES: C=C[C@@](C)(/C=C/c1ccc(OC)cc1)CCC=C(C)C [O-methylbakuchiol]
- lipid peroxidation (rat brain homogenates): inhibited

SMILES: CCCCCCCCCCCCOS(=O)(=O)[O-].[Na+] [SLS]
- Relative cell viability [%] (Epiderm human skin model): 6.03%

SMILES: C=C[C@@](C)(/C=C/c1ccc(O)cc1)CCC=C(C)C [Bakuchiol]
- inhibits elastase, compared with retinol (elastase): almost nine times more strongly than retinol
- inhibits collagenase, effectiveness (collagenase): 50%
- CDH1 gene expression (E-cadherin): 21.6
- AQP3 gene expression (Aquaporin 3): 4.3

SMILES: CC1=C(/C=C/C(C)=C/C=C/C(C)=C/CO)C(C)(C)CCC1 [Retinol]
- inhibits collagenase, effectiveness (collagenase): not affected at all
- CDH1 gene expression (E-cadherin): 9.4
- AQP3 gene expression (Aquaporin 3): 3.5

Source: patent publication EP4643843A1, “A COSMETIC OIL IN WATER EMULSION COMPOSITION COMPRISING APPLE JUICE” (Ledniowski, Dariusz, priority 2024, dated 2025)
